Assay results from US9771333B2, “Quinazoline derivatives as TAM family kinase inhibitors” (SIGNALCHEM LIFESCIENCES CORP., priority 2013, dated 2017).

How the values were obtained:
Assay type in all cases: biochemical
human Tyro3 = target: T1, human Tyro3 (Homo sapiens, UniProt Q06418); assay: Kinase enzymatic activity assay (33P-radiolabeled phosphate transfer), Tyro3; conditions: recombinant human Tyro3 (455-end), poly(4:1 glu:tyr) substrate, 30 minutes
T1 construct: GST (N); made in house; host or cells: Sf9 insect cells (baculovirus)
T1 sequence (Q06418 455-890 limits assumed): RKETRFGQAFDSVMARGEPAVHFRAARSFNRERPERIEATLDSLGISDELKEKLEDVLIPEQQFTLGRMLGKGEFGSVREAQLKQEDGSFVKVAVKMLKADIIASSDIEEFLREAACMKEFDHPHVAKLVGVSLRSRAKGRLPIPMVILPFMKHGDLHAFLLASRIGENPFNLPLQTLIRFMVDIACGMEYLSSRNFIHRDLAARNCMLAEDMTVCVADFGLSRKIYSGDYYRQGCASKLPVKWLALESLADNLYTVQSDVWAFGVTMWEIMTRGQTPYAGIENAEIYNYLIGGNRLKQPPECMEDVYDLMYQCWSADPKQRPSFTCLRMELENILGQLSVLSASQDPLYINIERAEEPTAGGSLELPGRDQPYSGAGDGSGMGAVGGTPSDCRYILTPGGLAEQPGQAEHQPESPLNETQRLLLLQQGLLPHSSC
How it was run: (§1)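 GST-tagged human Tyro3 (455-end), Axl (473-end) and Mer (578-872) from Sf9 cells, with poly(Glu:Tyr) 4:1 substrate, in MOPS pH 7.2 buffer with MgCl2. [33P]-ATP added from a 250 µM cocktail; reaction 30 min at room temperature, filter-captured counts, duplicates. IC50 derived from % inhibition over a compound serial dilution.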

human Axl = target: T2, human Axl (Homo sapiens, UniProt P30530); assay: Kinase enzymatic activity assay (33P-radiolabeled phosphate transfer), Axl; conditions: recombinant human Axl (473-end), poly(4:1 glu:tyr) substrate, 30 minutes
T2 construct: GST (N); made in house; host or cells: Sf9 insect cells (baculovirus)
T2 sequence (P30530 473-894 limits assumed): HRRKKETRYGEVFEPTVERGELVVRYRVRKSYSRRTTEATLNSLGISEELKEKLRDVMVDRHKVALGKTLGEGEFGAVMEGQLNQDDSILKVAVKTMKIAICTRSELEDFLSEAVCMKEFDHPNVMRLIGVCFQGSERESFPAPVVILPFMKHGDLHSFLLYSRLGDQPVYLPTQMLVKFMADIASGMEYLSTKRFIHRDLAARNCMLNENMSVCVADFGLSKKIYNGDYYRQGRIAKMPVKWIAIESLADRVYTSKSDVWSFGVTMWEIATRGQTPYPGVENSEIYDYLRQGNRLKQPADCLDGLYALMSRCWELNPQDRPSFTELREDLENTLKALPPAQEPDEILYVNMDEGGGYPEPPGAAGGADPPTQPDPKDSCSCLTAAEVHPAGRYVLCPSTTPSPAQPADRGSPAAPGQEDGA
How it was run: as §1

human Mer = target: T3, human Mer (Homo sapiens, UniProt Q12866); assay: Kinase enzymatic activity assay (33P-radiolabeled phosphate transfer), Mer; conditions: recombinant human Mer (578-872), poly(4:1 glu:tyr) substrate, 30 minutes
T3 construct: GST (N); made in house; host or cells: Sf9 insect cells (baculovirus)
T3 sequence (Q12866 578-872): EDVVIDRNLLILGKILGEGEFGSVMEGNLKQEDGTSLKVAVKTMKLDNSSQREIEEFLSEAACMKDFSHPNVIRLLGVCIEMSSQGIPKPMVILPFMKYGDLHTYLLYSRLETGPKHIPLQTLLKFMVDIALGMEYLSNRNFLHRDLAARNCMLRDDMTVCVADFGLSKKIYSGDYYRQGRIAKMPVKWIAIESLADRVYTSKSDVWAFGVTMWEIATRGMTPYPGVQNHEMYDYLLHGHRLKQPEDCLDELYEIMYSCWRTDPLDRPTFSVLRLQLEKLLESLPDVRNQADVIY
How it was run: as §1

IC50 (human Tyro3) | IC50 (human Axl) | IC50 (human Mer) | SMILES
< 500 nM | < 500 nM | 1000 to 10000 nM | Cc1csc(Sc2ncnc3cc(OCC4CCN(C)CC4)cc(OC4CCOCC4)c23)n1 [Example 2.51, 4-methyl-2-((7-((1-methylpiperidin-4-yl)methoxy)-5-((tetrahydro-2H-pyran-4-yl)oxy)quinazolin-4-yl)thio)thiazole]
< 500 nM | < 500 nM | < 500 nM | CN1CCC(COc2cc(OC3CCOCC3)c3c(Sc4nccs4)ncnc3c2)CC1 [Example 2.52, 2-((7-((1-methylpiperidin-4-yl)methoxy)-5-((tetrahydro-2H-pyran-4-yl)oxy)quinazolin-4-yl)thio)thiazole]
> 10000 nM | 1000 to 10000 nM | > 10000 nM | FC(F)(F)c1csc(Nc2ncnc3cc(OCCN4CCOCC4)cc(OC4CCOCC4)c23)n1 [Example 2.53, N-(7-(2-morpholinoethoxy)-5-((tetrahydro-2H-pyran-4-yl)oxy)quinazolin-4-yl)-4-(trifluoromethyl)thiazol-2-amine]
> 10000 nM | < 500 nM | 1000 to 10000 nM | CN(C)CCCOc1cc(OC2CCOCC2)c2c(Nc3nc(C(F)(F)F)cs3)ncnc2c1 [Example 2.54, N-(7-(3-(dimethylamino)propoxy)-5-((tetrahydro-2H-pyran-4-yl)oxy)quinazolin-4-yl)-4-(trifluoromethyl)thiazol-2-amine]
> 10000 nM | 500 to 1000 nM | > 10000 nM | OC[C@@H](O)COc1cc(OC2CCOCC2)c2c(Nc3nc(C(F)(F)F)cs3)ncnc2c1 [Example 2.55, (R)-3-((5-((tetrahydro-2H-pyran-4-yl)oxy)-4-((4-(trifluoromethyl)thiazol-2-yl)amino)quinazolin-7-yl)oxy)propane-1,2-diol]
> 10000 nM | < 500 nM | 1000 to 10000 nM | CN(C)CCOCCOc1cc(OC2CCOCC2)c2c(Nc3nc(C(F)(F)F)cs3)ncnc2c1 [Example 2.56, N-(7-(2-(2-(dimethylamino)ethoxy)ethoxy)-5-((tetrahydro-2H-pyran-4-yl)oxy)quinazolin-4-yl)-4-(trifluoromethyl)thiazol-2-amine]
1000 to 10000 nM | < 500 nM | 1000 to 10000 nM | CN(C)CCN1CCN(c2cc(OC3CCOCC3)c3c(Nc4nc(C(F)(F)F)cs4)ncnc3c2)CC1 [Example 2.57, N-(7-(4-(2-(dimethyl-amino)ethyl)piperazin-1-yl)-5-((tetrahydro-2H-pyran-4-yl)oxy)-quinazolin-4-yl)-4-(trifluoromethyl)-thiazol-2-amine]
> 10000 nM | 500 to 1000 nM | 1000 to 10000 nM | CN1CCC(COc2cc(OC3CCOCC3)c3c(Nc4cc(C(F)(F)F)no4)ncnc3c2)CC1 [Example 2.58, N-(7-((1-methylpiperidin-4-yl)methoxy)-5-((tetrahydro-2H-pyran-4-yl)oxy)quinazolin-4-yl)-3-(trifluoromethyl)isoxazol-5-amine]
> 10000 nM | 500 to 1000 nM | > 10000 nM | CN(C)CCCN(C)c1cc(OC2CCOCC2)c2c(Nc3nc(C(F)(F)F)cs3)ncnc2c1 [Example 2.59, N^7-(3-(dimethylamino)-propyl)-N^7-methyl-5-((tetrahydro-2H-pyran-4-yl)oxy)-N^4-(4-(trifluoromethyl)thiazol-2-yl)quinazoline-4,7-diamine]
> 10000 nM | < 500 nM | < 500 nM | FC(F)(F)c1csc(Nc2ncnc3cc(OCCN4CCCCC4)cc(OC4CCOCC4)c23)n1 [Example 2.60, N-(7-(2-(piperidin-1-yl)ethoxy)-5-((tetrahydro-2H-pyran-4-yl)oxy)quinazolin-4-yl)-4-(trifluoromethyl)thiazol-2-amine]
1000 to 10000 nM | < 500 nM | < 500 nM | CN1CCC(COc2cc(OC3CCOCC3)c3c(Nc4ccon4)ncnc3c2)CC1 [Example 2.61, N-(7-((1-methylpiperidin-4-yl)methoxy)-5-((tetrahydro-2H-pyran-4-yl)oxy)-quinazolin-4-yl)isoxazol-3-amine]
< 500 nM | 1000 to 10000 nM | < 500 nM | CN(C)CCCOc1cc(OC2CCOCC2)c2c(Oc3ccc(F)cc3Cl)ncnc2c1 [Example 2.62, 3-((4-(2-chloro-4-fluorophenoxy)-5-((tetrahydro-2H-pyran-4-yl)oxy)quinazolin-7-yl)oxy)-N,N-dimethylpropan-1-amine]
< 500 nM | < 500 nM | < 500 nM | CN1CCN(CCCOc2cc(OC3CCOCC3)c3c(Oc4ccc(F)cc4Cl)ncnc3c2)CC1 [Example 2.63, 4-(2-chloro-4-fluorophenoxy)-7-(3-(4-methylpiperazin-1-yl)propoxy)-5-((tetrahydro-2H-pyran-4-yl)oxy)quinazoline]
500 to 1000 nM | 1000 to 10000 nM | 1000 to 10000 nM | CN1CCN(CCOc2cc(OC3CCOCC3)c3c(Oc4ccc(F)cc4Cl)ncnc3c2)CC1 [Example 3, 4-(2-chloro-4-fluorophenoxy)-7-(2-(4-methylpiperazin-1-yl)ethoxy)-5-((tetrahydro-2H-pyran-4-yl)oxy)quinazoline]
500 to 1000 nM | > 10000 nM | 500 to 1000 nM | COc1cc(OC2CCOCC2)c2c(Oc3ccc(F)cc3Cl)ncnc2c1 [Example 3.1, 4-(2-chloro-4-fluorophenoxy)-7-methoxy-5-((tetrahydro-2H-pyran-4-yl)oxy)quinazoline]
< 500 nM | < 500 nM | 1000 to 10000 nM | CN1CCN(CCOc2cc(OC3CCOCC3)c3c(Oc4ccccc4)ncnc3c2)CC1 [Example 3.2, 7-(2-(4-methylpiperazin-1-yl)ethoxy)-4-phenoxy-5-((tetrahydro-2H-pyran-4-yl)oxy)quinazoline]
< 500 nM | > 10000 nM | 1000 to 10000 nM | CN1CCN(CCOc2cc(OC3CCOCC3)c3c(Sc4ccc(F)cc4Cl)ncnc3c2)CC1 [Example 3.3, 4-((2-chloro-4-fluorophenyl)thio)-7-(2-(4-methylpiperazin-1-yl)ethoxy)-5-((tetrahydro-2H-pyran-4-yl)oxy)quinazoline]
1000 to 10000 nM | 500 to 1000 nM | 500 to 1000 nM | CN1CCN(CCOc2cc(OC3CCOCC3)c3c(OC4CCCCC4)ncnc3c2)CC1 [Example 3.4, 4-(cyclohexyloxy)-7-(2-(4-methylpiperazin-1-yl)ethoxy)-5-((tetrahydro-2H-pyran-4-yl)oxy)quinazoline]
1000 to 10000 nM | > 10000 nM | > 10000 nM | COCCOc1cc(OCCN2CCN(C)CC2)cc2ncnc(Sc3ccc(Cl)cc3)c12 [Example 4, 4-((4-chlorophenyl)thio)-5-(2-methoxyethoxy)-7-(2-(4-methylpiperazin-1-yl)ethoxy)quinazoline]
500 to 1000 nM | > 10000 nM | > 10000 nM | COCCOc1cc(OCCN2CCN(C)CC2)cc2ncnc(Sc3ccc(F)cc3)c12 [Example 4.1, 4-((4-fluorophenyl)thio)-5-(2-methoxyethoxy)-7-(2-(4-methylpiperazin-1-yl)ethoxy)quinazoline]
1000 to 10000 nM | 1000 to 10000 nM | > 10000 nM | COCCOc1cc(OCCN2CCN(C)CC2)cc2ncnc(Sc3cc(Cl)cc(Cl)c3)c12 [Example 4.2, 4-((3,5-dichlorophenyl)thio)-5-(2-methoxyethoxy)-7-(2-(4-methylpiperazin-1-yl)ethoxy)quinazoline]
